Assay results: US7173019B2, “Linked cyclitols and their polysulfated derivatives” (The Australian National University, priority 2001, dated 2007)
Like-named read-outs stand apart in the source and are kept apart here.

Assays:
[1] = biological target: T1, human platelet heparanase (Homo sapiens, UniProt Q9Y251); assay: Heparanase inhibition, 3H-radiolabelled HS cleavage assay; format: biochemical; details: for inhibition: read-out: Relative inhibition (%); for EC50: heparanase inhibition; for inhibition at 10 µg/mL: read-out: Inhibition (%) at 10 μg/ml
T1 construct: 10 ng of purified human platelet heparanase; from tissue; host or cells: human platelets
T1 sequence (Q9Y251 158-543 limits assumed): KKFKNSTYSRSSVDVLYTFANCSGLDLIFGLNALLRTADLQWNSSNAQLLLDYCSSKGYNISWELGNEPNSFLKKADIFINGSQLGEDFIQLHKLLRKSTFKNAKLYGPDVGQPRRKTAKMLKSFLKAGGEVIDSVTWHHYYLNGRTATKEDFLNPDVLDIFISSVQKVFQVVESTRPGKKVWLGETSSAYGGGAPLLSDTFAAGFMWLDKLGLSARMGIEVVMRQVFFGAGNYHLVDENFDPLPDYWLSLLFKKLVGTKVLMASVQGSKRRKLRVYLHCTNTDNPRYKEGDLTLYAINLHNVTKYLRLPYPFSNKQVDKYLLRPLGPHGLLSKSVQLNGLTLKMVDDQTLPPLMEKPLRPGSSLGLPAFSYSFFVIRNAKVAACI
T1 sequence (Q9Y251 36-109 limits assumed): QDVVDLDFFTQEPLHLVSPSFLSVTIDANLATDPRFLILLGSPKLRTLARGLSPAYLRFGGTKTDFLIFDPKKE
Experimental: Briefly, to an incubation mixture of […] containing ^3H-radiolabelled porcine mucosal HS […], 50 mM-sodium acetate buffer, pH 5.0, […] bovine serum albumin and the inhibitor to be tested, was added 10 ng of purified human platelet heparanase and the mixture incubated for 30 min. The reaction was terminated by freezing the assay tubes. The substrate was separated from the cleavage products on minicolumns of sepharose-bound histidine-rich glycoprotein (Freeman, C., and Parish, C. R. [1997], supra).
Inhibitory activity is based on a comparison with heparin with 100% inhibition at 30 μg/ml. The compounds were also tested at the same purity as in Example 15.

[2] = biological target: T2, VEGF (Homo sapiens, UniProt P15692); assay: Biacore biosensor: inhibition of VEGF binding to immobilised heparin and heparan sulfate; details: inhibitor 0.034 μM, VEGF 0.025 μM
T2 sequence (P15692 27-191 isoform P15692-4): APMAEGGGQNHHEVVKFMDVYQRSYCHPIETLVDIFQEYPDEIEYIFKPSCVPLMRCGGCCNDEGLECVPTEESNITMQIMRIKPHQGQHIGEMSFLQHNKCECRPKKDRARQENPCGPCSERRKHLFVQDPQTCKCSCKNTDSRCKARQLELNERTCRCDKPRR
Experimental: (§1) Assays were performed using a Biacore™ 2000 optical biosensor obtained from Biacore AB, Uppsala, Sweden. The biosensor was operated in accordance with the manufacturer's instructions. Briefly, neutravidin was covalently coupled to the surface of CM5 chips of the biosensor and then either biotinylated heparin (1 μg/ml) or biotinylated heparan sulfate ([…]) bound to the immobilised neutravidin. Mixtures of a test compound and a growth factor or other effector compound were preincubated for 2 to 5 minutes and the mixtures then added to individual biosensor cuvettes. Binding of growth factor or effector compound to the heparin or heparan sulfate was then monitored for approximately 5 minutes with the biosensor.
(§2) The tabulated values are the IC50 in μM or % inhibition of binding of the growth factor to the immobilised heparan sulfate (HS) or heparin.

[3] = biological target: T3, human leukocyte Cathepsin G (Homo sapiens, UniProt P08311); assay: Cathepsin G inhibition, fluorogenic substrate, 96 well assay; format: biochemical; details: human leukocyte cathepsin G 100 ng, 37° C., 60 min, pH 6.6; for IC50: read-out: Amount for 50% inhibition (converted)
T3 construct: human leukocyte Cathepsin G (100 ng protein); from tissue; host or cells: human leukocytes
T3 sequence (P08311 21-244): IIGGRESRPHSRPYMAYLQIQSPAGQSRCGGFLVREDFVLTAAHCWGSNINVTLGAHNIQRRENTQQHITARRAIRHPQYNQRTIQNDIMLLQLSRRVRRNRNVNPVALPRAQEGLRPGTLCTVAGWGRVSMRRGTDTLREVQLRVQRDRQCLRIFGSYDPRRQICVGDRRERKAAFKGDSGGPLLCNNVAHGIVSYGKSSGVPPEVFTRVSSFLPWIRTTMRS
Experimental: Cathepsin G activity was determined using a 96 well assay format in PVC microtitre U-bottom plates with activity determination by a fluorescence plate reader. Briefly, within a total incubation volume of 40 μl, human leukocyte Cathepsin G (100 ng protein) was added to a mixture of inhibitor and the fluorogenic substrate MeOSuc-ala-ala-pro-phe-AMAC in 50 mM-NaOAc buffer, pH 6.6 containing 50 mM NaCl and 0.1% (v/v) Brij 35. The mixture was incubated at 37° C. for 60 min, the reaction stopped by the addition of 40 μl of 250 mM acetic acid and the fluorescence determined with excitation at 360 nm and emitted light measured at 460 nm.
In this table, the linked cyclitol compound identifications are the same as those given in Section A above where the structures of the compounds are also given. With regard to the purity rating, a greater number of asterisks signifies a greater degree of purity with five asterisks signifying an essentially pure compound. The cathepsin G inhibition data are the concentrations of compounds required to inhibit the enzyme by 50%.

[4] = biological target: aFGF (Homo sapiens, UniProt P05230); assay: Biacore biosensor: inhibition of aFGF binding to immobilised heparin and heparan sulfate; details: inhibitor 0.034 μM, aFGF 0.025 μM
Sequence of aFGF (P05230 whole entry, species assumed): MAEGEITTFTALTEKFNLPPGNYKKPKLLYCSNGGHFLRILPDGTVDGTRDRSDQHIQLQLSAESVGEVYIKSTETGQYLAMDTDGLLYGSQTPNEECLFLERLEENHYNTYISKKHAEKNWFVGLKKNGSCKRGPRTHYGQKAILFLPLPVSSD
Experimental: as §1, §2

[5] = biological target: bFGF (Homo sapiens, UniProt P09038); assay: Biacore biosensor: inhibition of bFGF binding to immobilised heparin and heparan sulfate
Sequence of bFGF (P09038 134-288 limits assumed, species assumed): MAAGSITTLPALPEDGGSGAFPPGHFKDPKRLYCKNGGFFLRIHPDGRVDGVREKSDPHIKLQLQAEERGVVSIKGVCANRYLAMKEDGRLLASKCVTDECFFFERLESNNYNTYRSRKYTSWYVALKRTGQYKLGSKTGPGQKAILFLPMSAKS
Experimental: as §1, §2

[6] = biological target: T4, IL-8 (Homo sapiens, UniProt P10145); assay: Biacore biosensor: inhibition of IL-8 binding to immobilised heparin and heparan sulfate; details: inhibitor 1.0 μM, IL-8 0.068 μM
T4 sequence (P10145 21-99): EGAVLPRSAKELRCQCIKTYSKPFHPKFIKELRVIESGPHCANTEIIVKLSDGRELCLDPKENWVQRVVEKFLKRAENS
Experimental: as §1

[7] = based on a comparison with heparin with 100% inhibition at 30 μg/ml
[8] = immobilised heparan sulfate, read-out: Inhibition of binding of VEGF (HS)
[9] = immobilised heparin, read-out: Inhibition of binding of VEGF (Hep)
[10] = immobilised heparan sulfate, read-out: Inhibition of binding of aFGF (HS)
[11] = immobilised heparin, read-out: Inhibition of binding of aFGF (Hep)
[12] = immobilised heparan sulfate, inhibitor 0.034 μM, bFGF 0.034 μM, read-out: Inhibition of binding of bFGF (HS)
[13] = immobilised heparin, inhibitor 0.034 μM, bFGF 0.034 μM, read-out: Inhibition of binding of bFGF (Hep)
[14] = immobilised heparan sulfate, read-out: Inhibition of binding of IL-8 (HS)
[15] = immobilised heparin, read-out: Inhibition of binding of IL-8 (Hep)

| inhibition [1, 7] [%] | EC50 ([1]; read-out: EC50 (converted)) [nM] | inhibition at 10 µg/mL [1] [%] | inhibition at 0.034 µM [2, 8] [%] | inhibition at 0.034 µM [2, 9] [%] | IC50 [3] [nM] | inhibition at 0.034 µM [4, 10] [%] | inhibition at 0.034 µM [4, 11] [%] | inhibition at 0.034 µM [5, 12] [%] | inhibition at 0.034 µM [5, 13] [%] | inhibition at 1 µM [6, 14] [%] | inhibition at 1 µM [6, 15] [%] | Compound | also measured |
| --- | --- | --- | --- | --- | --- | --- | --- | --- | --- | --- | --- | --- | --- |
| 48 | 20000 | 33 | 55 | 68 | 318 | 30 | 28 | 48 | 40 | 54 | 52 | O=S(=O)(O)O[C@H]1[C@H](OS(=O)(=O)O)[C@@H](N(CCCCCCCN([C@H]2C=C[C@@H](OS(=O)(=O)O)[C@@H](OS(=O)(=O)O)[C@@H]2OS(=O)(=O)O)[C@H]2C=C[C@@H](OS(=O)(=O)O)[C@@H](OS(=O)(=O)O)[C@@H]2OS(=O)(=O)O)[C@H]2C=C[C@@H](OS(=O)(=O)O)[C@@H](OS(=O)(=O)O)[C@@H]2OS(=O)(=O)O)C=C[C@H]1OS(=O)(=O)O [Compound 4h] |  |
| 53 | 16100 | 39 | 71 | 70 | 136 | 28 | 30 | 51 | 45 | 89 | 95 | O=S(=O)(O)O[C@H]1[C@H](OS(=O)(=O)O)[C@@H](N(CCCCCCCCN([C@H]2C=C[C@@H](OS(=O)(=O)O)[C@@H](OS(=O)(=O)O)[C@@H]2OS(=O)(=O)O)[C@H]2C=C[C@@H](OS(=O)(=O)O)[C@@H](OS(=O)(=O)O)[C@@H]2OS(=O)(=O)O)[C@H]2C=C[C@@H](OS(=O)(=O)O)[C@@H](OS(=O)(=O)O)[C@@H]2OS(=O)(=O)O)C=C[C@H]1OS(=O)(=O)O [Compound 4i] |  |
| 73 | 6130 |  | 54 | 64 | 91.9 | 31 | 31 | 43 | 46 | 65 | 62 | O=S(=O)(O)O[C@H]1[C@H](OS(=O)(=O)O)[C@@H](N(CCCCCCCCCN([C@H]2C=C[C@@H](OS(=O)(=O)O)[C@@H](OS(=O)(=O)O)[C@@H]2OS(=O)(=O)O)[C@H]2C=C[C@@H](OS(=O)(=O)O)[C@@H](OS(=O)(=O)O)[C@@H]2OS(=O)(=O)O)[C@H]2C=C[C@@H](OS(=O)(=O)O)[C@@H](OS(=O)(=O)O)[C@@H]2OS(=O)(=O)O)C=C[C@H]1OS(=O)(=O)O [Compound 4j] |  |
| 50 |  | 39 | 30 | 41 | 133 | 39 | 43 | 45 | 36 | 54 | 67 | O=S(=O)(O)O[C@H]1[C@H](OS(=O)(=O)O)[C@@H](N(CCCCCN([C@H]2C=C[C@@H](OS(=O)(=O)O)[C@@H](OS(=O)(=O)O)[C@@H]2OS(=O)(=O)O)[C@H]2C=C[C@@H](OS(=O)(=O)O)[C@@H](OS(=O)(=O)O)[C@@H]2OS(=O)(=O)O)[C@H]2C=C[C@@H](OS(=O)(=O)O)[C@@H](OS(=O)(=O)O)[C@@H]2OS(=O)(=O)O)C=C[C@H]1OS(=O)(=O)O [Compound 4k] |  |
| 48 | 17000 |  | 0 | 0 | 292 | 47 | 54 | 43 | 34 | 46 | 52 | O=S(=O)(O)OC(CN([C@H]1C=C[C@@H](OS(=O)(=O)O)[C@@H](OS(=O)(=O)O)[C@@H]1OS(=O)(=O)O)[C@H]1C=C[C@@H](OS(=O)(=O)O)[C@@H](OS(=O)(=O)O)[C@@H]1OS(=O)(=O)O)CN([C@H]1C=C[C@@H](OS(=O)(=O)O)[C@@H](OS(=O)(=O)O)[C@@H]1OS(=O)(=O)O)[C@H]1C=C[C@@H](OS(=O)(=O)O)[C@@H](OS(=O)(=O)O)[C@@H]1OS(=O)(=O)O [Compound 4l] |  |
|  |  |  |  |  |  |  |  |  |  |  |  | O=S(=O)(O)OC1C(OS(=O)(=O)O)C(OS(=O)(=O)O)C(N(Cc2cccc(CN(C3C(OS(=O)(=O)O)C(OS(=O)(=O)O)C(OS(=O)(=O)O)C(OS(=O)(=O)O)C3OS(=O)(=O)O)C3C(OS(=O)(=O)O)C(OS(=O)(=O)O)C(OS(=O)(=O)O)C(OS(=O)(=O)O)C3OS(=O)(=O)O)c2)C2C(OS(=O)(=O)O)C(OS(=O)(=O)O)C(OS(=O)(=O)O)C(OS(=O)(=O)O)C2OS(=O)(=O)O)C(OS(=O)(=O)O)C1OS(=O)(=O)O (stereo not shown) [Compound 5d] | Relative inhibition (%) [1, 7]: 100%; EC50 [1]: 6 µg/mL; Inhibition of binding of VEGF (HS) ([2]; immobilised heparan sulfate): 39% (HS); Inhibition of binding of VEGF (Hep) ([2]; immobilised heparin): 54% (Hep); Amount for 50% inhibition [3]: 0.53 µg/mL; Inhibition of binding of aFGF (HS) ([4]; immobilised heparan sulfate): 67% (HS); Inhibition of binding of aFGF (Hep) ([4]; immobilised heparin): 72% (Hep); Inhibition of binding of bFGF (HS) ([5]; immobilised heparan sulfate, inhibitor 0.034 μM, bFGF 0.034 μM): 48% (HS); IC50 ([5]; immobilised heparan sulfate, read-out: IC50, inhibition of bFGF binding (HS)): 38 nM; Inhibition of binding of bFGF (Hep) ([5]; immobilised heparin, inhibitor 0.034 μM, bFGF 0.034 μM): 35% (Hep); IC50 ([5]; immobilised heparin, read-out: IC50, inhibition of bFGF binding (Hep)): 160 nM; Inhibition of binding of IL-8 (HS) ([6]; immobilised heparan sulfate): 62% (HS); Inhibition of binding of IL-8 (Hep) ([6]; immobilised heparin): 71% (Hep) |
